Laboratory results from patent US10508104B2, “6-hydroxy-5-(phenyl/heteroarylsulfonyl)pyrimidin-4(1H)-one as APJ agonists” (Bristol-Myers Squibb Company, priority 2016, dated 2019).

Target: human APJ receptor (Homo sapiens (Human), UniProt P35414)
Assay: Intracellular cAMP accumulation assay (APJ hcAMP, HTRF)
Format: cell-based
Conditions: HEK293 cells stably expressing human APJ receptor; inhibition of forskolin-mediated cAMP production; read-out: Human APJ cAMP EC50 Potency range
Summary of the method: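 HEK293 cells stably expressing human APJ, 5,000 per well, incubated 30 min at rt with compound, […] and 2 μM forskolin. cAMP measured by HTRF against a cAMP standard curve as inhibition of forskolin-driven production. EC50 from variable-slope sigmoidal fit.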

human APJ receptor, sequence (P35414 whole entry): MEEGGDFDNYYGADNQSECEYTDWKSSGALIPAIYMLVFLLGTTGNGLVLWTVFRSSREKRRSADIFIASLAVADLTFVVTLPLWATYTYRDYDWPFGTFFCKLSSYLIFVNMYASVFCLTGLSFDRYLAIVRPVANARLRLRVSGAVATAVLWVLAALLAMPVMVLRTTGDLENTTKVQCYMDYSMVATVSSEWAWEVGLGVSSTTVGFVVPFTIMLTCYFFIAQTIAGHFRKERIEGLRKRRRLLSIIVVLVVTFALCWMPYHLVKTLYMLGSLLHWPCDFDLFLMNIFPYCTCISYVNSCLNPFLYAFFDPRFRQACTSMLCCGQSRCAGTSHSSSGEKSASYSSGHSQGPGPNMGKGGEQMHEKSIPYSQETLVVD

Row | Structure (SMILES) | EC50
1 | CCCCc1nc(=O)c(S(=O)(=O)c2ccc(-c3ccccc3C)cn2)c(O)n1[C@@H](CC)c1cccc(C#N)c1 [Example 482, 3-[(1S)-1-(2-butyl-6-hydroxy-5-{[5-(2-methy!phenyl)pyridin-2-yl]sulfonyl}-4-oxo-1,4-dihydropyrimidin-1-yl)propyl]benzonitrile] | 0.01 to 10 nM
2 | C/C=C(/c1cccc(C#N)c1)n1c(CCCC)nc(=O)c(S(=O)(=O)c2ccc(-c3ccnc(F)c3C)cc2)c1O [Example 483, 3-[(1Z)-1-{2-butyl-5-[4-(2-fluoro-3-methylpyridin-4-yl)benzenesulfonyl]-6-hydroxy-4-oxo-1,4-dihydropyrimidin-1-yl}prop-1-en-1-yl]benzonitrile] | 0.01 to 10 nM
3 | CCCCc1nc(=O)c(S(=O)(=O)c2ccc(-c3cccnc3C)cc2)c(O)n1[C@H](c1cccc(C#N)c1)C1CC1 [Example 484, 3-[(S)-{2-butyl-6-hydroxy-5-[4-(2-methyipyridin-3-yl)benzenesulfonyl]-4-oxo-1,4-dihydropyrimidin-1-yl}(cyclopropyl)methyl] benzonitrile] | 0.01 to 10 nM
4 | CCCCc1nc(=O)c(S(=O)(=O)c2ccc(-c3cccn(C)c3=O)cn2)c(O)n1[C@@H](CC)c1cccc(C#N)c1 [Example 485, 3-[(1S)-1-[2-butyl-6-hydroxy-5-({1′-methyl-2′-oxo-1′,2′-dihydro-[3,3′-bipyridine]-6-yl}sulfonyl)-4-oxo-1,4-dihydropyrimidin-1-yl]propyl]benzonitrile] | 0.01 to 10 nM
5 | CC[C@@H](c1cccc(C#N)c1)n1c(CC2CC2)nc(=O)c(S(=O)(=O)c2ccc(-c3cccnc3C(N)=O)cc2)c1O [Example 486, 3-[4-({1-[(1S)-1-(3-cyanophenyl)propyl]-2-(cyclopropylmethyl)-6-hydroxy-4-oxo-1,4-dihydropyrimidin-5-yl}sulfonyl)phenyl] pyridine-2-carboxamide] | 0.01 to 10 nM
6 | CCCCc1nc(=O)c(S(=O)(=O)c2ccc(-c3ccncc3C)cc2)c(O)n1[C@H](c1cccc(C#N)c1)C1CC1 [Example 487, 3-[(S)-{2-butyl-6-hydroxy-5-[4-(3-methylpyridin-4-yl)benzenesulfonyl]-4-oxo-1,4-dihydropyrimidin-1-yl}(cyclopropyl)methyl] benzonitrile] | 0.01 to 10 nM
7 | CC[C@@H](c1cc(F)cc(C#N)c1)n1c(CC2CC2)nc(=O)c(S(=O)(=O)c2ccc(-c3ccnc(F)c3C)cc2)c1O [Example 488, 3-[(1S)-1-[2-(cyclopropylmethyl)-5-[4-(2-fluoro-3-methylpyridin-4-yl)benzenesulfonyl]-6-hydroxy-4-oxo-1,4-dihydropyrimidin-1-yl]propyl]-5-fluorobenzonitrile] | 0.01 to 10 nM
8 | CCCCc1nc(=O)c(S(=O)(=O)c2ccc(-c3ccccc3C(=O)N3CCOCC3)cc2)c(O)n1[C@@H](CC)c1cccc(C#N)c1 [Example 489, 3-[(1S)-1-(2-butyl-6-hydroxy-5-{[2′-(morpholine-4-carbonyl)-[1,1′-biphenyl]-4-yl)sulfonyl}-4-oxo-1,4-dihydropyrimidin-1-yl)propyl]benzonitrile] | 0.01 to 10 nM
9 | Cn1cccc(-c2ccc(S(=O)(=O)c3c(O)n([C@H](c4cccc(C#N)c4)C4CC4)c(CC4CC4)nc3=O)cc2)c1=O [Example 490, 3-[(S)-cyclopropyl[2-(cyclopropylmethyl)-6-hydroxy-5-[4-(1-methyl-2-oxo-1,2-dihydropyridin-3-yl)benzenesulfonyl]-4-oxo-1,4-dihydropyrimidin-1-yl]methyl]benzonitrile] | 0.01 to 10 nM
10 | Cc1cnccc1-c1ccc(S(=O)(=O)c2c(O)n([C@H](c3cccc(C#N)c3)C3CC3)c(CC3CC3)nc2=O)cc1 [Example 496, 3-[(S)-cyclopropyl[2-(cyclopropylmethyl)-6-hydroxy-5-[4-(3-methylpyridin-4-yl)benzenesulfonyl]-4-oxo-1,4-dihydropyrimidin-1-yl]methyl]benzonitrile] | 0.01 to 10 nM
11 | Cc1ncccc1-c1ccc(S(=O)(=O)c2c(O)n([C@H](c3cccc(C#N)c3)C3CC3)c(CC3CC3)nc2=O)cc1 [Example 497, 3-[(S)-cyclopropyl[2-(cyclopropylmethyl)-6-hydroxy-5-[4-(2-methylpyridin-3-yl)benzenesulfonyl]-4-oxo-1,4-dihydropyrimidin-1-yl]methyl]benzonitrile] | 0.01 to 10 nM
12 | Cc1c(-c2ccc(S(=O)(=O)c3c(O)n([C@H](c4cccc(C#N)c4)C4CC4)c(CC4CC4)nc3=O)cc2)ccnc1F [Example 498, 3-[(S)-cyclopropyl[2-(cyclopropylmethyl)-5-[4-(2-fluoro-3-methylpyridin-4-yl)benzenesulfonyl]-6-hydroxy-4-oxo-1,4-dihydropyrimidin-1-yl]methyl]benzonitrile] | 0.01 to 10 nM
13 | Cc1nc(F)ccc1-c1ccc(S(=O)(=O)c2c(O)n([C@H](c3cccc(C#N)c3)C3CC3)c(CC3CC3)nc2=O)cc1 [Example 499, 3-[(S)-cyclopropyl[2-(cycIopropylmethyl)-5-[4-(6-fluoro-2-methylpyridin-3-yl)benzenesulfonyl]-6-hydroxy-4-oxo-1,4-dihydropyrimidin-1-yl]methyl]benzonitrile] | 0.01 to 10 nM
14 | N#Cc1cccc([C@H](C2CC2)n2c(CC3CC3)nc(=O)c(S(=O)(=O)c3ccc(-c4ccc(F)cc4C(N)=O)cc3)c2O)c1 [Example 500, 4′-({1-[(S)-(3-cyanophenyl)(cyclopropyl)methyl]-2-(cyclopropylmethyl)-6-hydroxy-4-oxo-1,4-dihydropyrimidin-5-yl}sulfonyl)-4-fluoro-[1,1′-biphenyl]-2-carboxamide] | 0.01 to 10 nM
15 | CC[C@@H](c1cc(F)cc(C#N)c1)n1c(CC2CC2)nc(=O)c(S(=O)(=O)c2ccc(-c3ccccc3C(N)=O)cc2)c1O [Example 502, 4′-({1-[(1S)-1-(3-cyano-5-fluorophenyl)propyl]-2-(cyclopropylmethyl)-6-hydroxy-4-oxo-1,4-dihydropyrimidin-5-yl}sulfonyl)-[1,1′-biphenyl]-2-carboxamide] | 0.01 to 10 nM

Results, then the compound that gave them:

Row | EC50 | Structure (SMILES)
16 | 0.01 to 10 nM | CCCCc1nc(=O)c(S(=O)(=O)c2ccc(-c3ccccc3C)cc2)c(O)n1[C@@H](CC)c1cccc(C#N)c1 [Example 491, 3-[(1S)-1-[2-butyl-6-hydroxy-5-({2′-methyl-[1,1′-biphenyl]-4-yl}sulfonyl)-4-oxo-1,4-dihydropyrimidin-1-yl]propyl]benzonitrile]
17 | 0.01 to 10 nM | CCCCc1nc(=O)c(S(=O)(=O)c2ccc(-c3cccc(C#N)c3C)cc2)c(O)n1[C@@H](CC)c1cccc(C#N)c1 [Example 492, 4′-({2-butyl-1-[(1S)-1-(3-cyanophenyl)propyl]-6-hydroxy-4-oxo-1,4-dihydropyrimidin-5-yl}sulfonyl)-2-methyl-[1,1′-biphenyl]-3-carbonitrile]
18 | 0.01 to 10 nM | CCCCc1nc(=O)c(S(=O)(=O)c2ccc(-c3cc(C#N)ccc3C)cc2)c(O)n1[C@@H](CC)c1cccc(C#N)c1 [Example 493, 4′-({2-butyl-1-[(1S)-1-(3-cyanophenyl)propyl]-6-hydroxy-4-oxo-1,4-dihydropyrimidin-5-yl}sulfonyl)-6-methyl-[1,1′-biphenyl]-3-carbonitrile]
19 | 0.01 to 10 nM | CCCCc1nc(=O)c(S(=O)(=O)c2ccc(-c3ccc(F)cc3C(N)=O)cc2)c(O)n1[C@@H](CC)c1cccc(C#N)c1 [Example 494, 4′-({2-butyl-1-[(1S)-1-(3-cyanophenyl)propyl]-6-hydroxy-4-oxo-1,4-dihydropyrimidin-5-yl}sulfonyl)-4-fluoro-[1,1′-biphenyl]-2-carboxamide]
20 | 0.01 to 10 nM | CCCCc1nc(=O)c(S(=O)(=O)c2ccc(-c3c[nH]nc3C)cc2)c(O)n1[C@@H](CC)c1cccc(C#N)c1 [Example 495, 3-[(1S)-1-{2-butyl-6-hydroxy-5-[4-(3-methyl-1H-pyrazol-4-yl)benzenesulfonyl]-4-oxo-1,4-dihydropyrimidin-1-yl}propyl]benzonitrile]
21 | 0.01 to 10 nM | CCCCc1nc(=O)c(S(=O)(=O)c2ccc(-c3ccccc3C(=O)OC)cc2)c(O)n1[C@@H](CC)c1cccc(C#N)c1 [Example 501, methyl 4′-({2-butyl-1-[(1S)-1-(3-cyanophenyl)propyl]-6-hydroxy-4-oxo-1,4-dihydropyrimidin-5-yl}sulfonyl)-[1,1′-biphenyl]-2-carboxylate]
22 | 0.01 to 10 nM | CCCCc1nc(=O)c(S(=O)(=O)c2ccc(-c3ccc(F)nc3F)cc2)c(O)n1[C@@H](CC)c1cccc(C#N)c1 [Example 503, 3-[(1S)-1-{2-butyl-5-[4-(2,6-difluoropyridin-3-yl)benzenesulfonyl]-6-hydroxy-4-oxo-1,4-dihydropyrimidin-1-yl}propyl]benzonitrile]
23 | 0.01 to 10 nM | CCCCc1nc(=O)c(S(=O)(=O)c2ccc(-c3cccn(C)c3=O)cc2)c(O)n1[C@@H](CC)c1cccc(C#N)c1 [Example 504, 3-[(1S)-1-{2-butyl-6-hydroxy-5-[4-(1-methyl-2-oxo-1,2-dihydropyridin-3-yl)benzenesulfonyl]-4-oxo-1,4-dihydropyrimidin-1-yl}propyl]benzonitrile]
24 | 0.01 to 10 nM | CCCCc1nc(=O)c(S(=O)(=O)c2ccc(-c3cccnc3F)cc2)c(O)n1[C@@H](CC)c1cccc(C#N)c1 [Example 505, 3-[(1S)-1-{2-butyl-5-[4-(2-fluoropyridin-3-yl)benzenesulfonyl]-6-hydroxy-4-oxo-1,4-dihydropyrimidin-1-yl}propyl]benzonitrile]
25 | 0.01 to 10 nM | CCCCc1nc(=O)c(S(=O)(=O)c2ccc(-c3ccnc(F)c3F)cc2)c(O)n1[C@@H](CC)c1cccc(C#N)c1 [Example 506, 3-[(1S)-1-{2-butyl-5-[4-(2,3-difluoropyridin-4-yl)benzenesulfonyl]-6-hydroxy-4-oxo-1,4-dihydropyrimidin-1-yl}propyl]benzonitrile]
26 | 0.01 to 10 nM | CCCCc1nc(=O)c(S(=O)(=O)c2ccc(-c3ccccc3C(=O)NC)cc2)c(O)n1[C@@H](CC)c1cccc(C#N)c1 [Example 507, 4′-({2-butyl-1-[(1S)-1-(3-cyanophenyl)propy1]-6-hydroxy-4-oxo-1,4-dihydropyrimidin-5-yl}sulfonyl)-N-methyl-[1,1′-biphenyl]-2-carboxamide]
